The subject of one data set is diabetic rat model. The conditions noted are these: similar or higher PM doses than 180 mg/day/kg body wt.; long-term; Degenhardt et al. 2002, Stitt et al. 2002; cited from earlier work.
Data set [1] relates to gentamicin and glycerol rat models of ARF. Put plainly: Gentamicin and glycerol rat models of ARF treated with PM. It counts as in vivo, Sprague-Dawley rats. To be noted: ARF+PM group compared to ARF group; PM 180 mg/day/kg body weight in drinking water. An excerpt:
The gentamicin and the glycerol rat models of ARF. There are several animal models of ARF, each having its specific advantages and limitations (see e.g., Bellomo et al. (2004) Group Crit Care 8:R204-12). Two such models are the gentamicin and the glycerol models. […] Importantly, the gentamicin and the glycerol models are highly relevant, representing two of the major clinical causes of ARF: antibiotic toxicity and rhabdomyolosis, respectively (Bellomo et al. (2004) Group Crit Care 8:R204-12). Examining the effects of PM in two different models also helps to minimize possible model-specific adverse effects.
The primary outcome measured is serum creatinine level at the end of PM treatment. […]
Two-month-old male Sprague-Dawley rats (250-300 g) are housed individually in metabolic cages. […] Animals are fed standard powdered stock ration, and their body weights are monitored daily. […]
For PM experiments, rats are randomized into 4 groups based on their baseline serum creatinine levels: (a) the Control group (no ARF is induced); (b) the PM group (no ARF is induced, but PM is given in drinking water); (c) the ARF group; and (d) the ARF+PM group. The experiment is terminated when the serum creatinine in the ARF group reaches its maximum level as determined in the model optimization studies described hereinabove. […]

The nature of data set [2]: Reactive PM amino groups in incubations with ethylene glycol (TNBS assay). It counts as physicochemical. The conditions noted are these: 24 hours at room temperature. Here is the method:
Effect of pyridoxamine treatment on urinary oxalate excretion. […] With the proposed experimental design, interference between PM and ethylene glycol might have been possible because both were administered in drinking water. If significant spontaneous oxidation of ethylene glycol occurs in solution, the resulting carbonyl moieties might react with the PM amino group. To address this question, the amount of reactive PM amino groups was measured in incubations with ethylene glycol using TNBS assay (Spadaro et al. (1979) Anal Biochem 96:317-321).

The subject of data set [3] is BSA-Amadori glycation intermediate. Put plainly: Conversion of BSA-Amadori glycation intermediate to CML, measured with anti-CML antibody. It counts as biochemical. The conditions noted are these: 0.1, 1, 15 mM PM; 200 mM sodium phosphate buffer, pH 7.5, 37° C.; FIG. 1A. Here is the method: FIG. 1A is a graph depicting the conversion of Amadori intermediate to CML measured using anti-CML antibody.
Isolated BSA-Amadori glycation intermediate was formed at diabetic (30 mM) concentration of glucose. The conversion of Amadori intermediate to the AGE N^ε-carboxymethyllysine (CML) was measured using an anti-CML antibody.

Data set [4] concerns Human glomerular visceral epithelial cells (podocytes). Put plainly: Cisplatin-induced podocyte cell death, viability by Rapid Cell Proliferation Kit. In kind it is cell-based. To be noted: 22 hours of treatment; RPMI medium with 1% FBS; FIG. 4.
Experimental: Human glomerular visceral epithelial cells (podocytes) were plated at 8,000 cells/well (96-well plate) and incubated for 24 hours in RPMI medium supplemented with 1% FBS. Following this incubation cells were treated as indicated without changing the medium. The treatment continued for 22 hours and cell viability was measured using Rapid Cell Proliferation Kit (CALBIOCHEM®), a unit of EMD Biosciences, Inc. San Diego, Calif., United States of America).
In data set [5] the test system is 8-F2-isoprostane (8-iso-PGF2) in the kidney. Briefly: Carbon tetrachloride rat model of oxidative stress, 8-F2-isoprostane in kidney by GC-MS. In kind it is in vivo. To be noted: CCl4 vs. CCl4+PM, p=0.066, not statistically significant; FIG. 5. As for the experimental part:
FIG. 5 is a plot depicting the effect of PM administration on the levels of a marker of oxidative stress (8-F2-lsoP) in the carbon tetrachloride (CCl4) rat model disclosed herein as determined by gas-chromatography/mass-spectrometry (GC-MS).
Based on the results of the in vitro experiments disclosed herein, it was hypothesized that PM might reduce oxidative stress in the kidney in vivo. This hypothesis was evaluated using the carbon tetrachloride rat model of oxidative stress (see Kadiiska et al. (2005) Free Radic Biol Med 38:698-710). The effect of PM was determined by measuring the levels of an oxidative stress marker, 8-F2-isoprostane (8-iso-PGF2) in the kidney using gas-chromatography/mass-spectrometry (see Morrow et al. (1999) Methods Enzymol 300:3-12).

In data set [6] the test system is urinary oxalate excretion. Briefly: Ethylene glycol rat model of experimental hyperoxaluria with PM in drinking water. In kind it is in vivo, Sprague-Dawley male rats. As for the experimental part:
FIGS. 6A and 6B are graphs depicting the effect of PM treatment on urinary oxalate excretion in animals with experimental hyperoxalura. Sprague-Dawley male rats (49-52 days old) were randomized on Day 1 to receive either ethylene glycol (0.75% v/v in drinking water (450 mg/day/kg body wt.); EG group) or no treatment (Control group). After Day 14, animals within each group were pair-matched according to their oxalate level. One member of each pair was then randomly assigned to receive PM (3 mg/ml or 180 mg/day/kg body wt.) either in drinking water (PM group) or in 0.75% ethylene glycol (EG+PM group). Urine samples were collected under toluene (to inhibit bacteria growth) in 50 ml tubes with hydrochloric acid to minimize spontaneous breakdown of urinary ascorbic acid to oxalate. Urinary oxalate was measured as described under Methods. Each symbol represents mean value±S.E. (n=5); at the time points indicated by asterisks, differences between the EG group and the EG+PM group were statistically significant (p<0.05). The data points on the graphs correspond to the following: ●—Control group; ▪—EG group; —PM group; ⋄—+EG+PM group.
In FIG. 6A, the results of PM given continuously starting from Day 14 are presented.
In FIG. 6B, the results for a separate experiment in which PM treatment was started on Day 14 and was discontinued on Day 28 are presented. In this experiment, the elevated levels of oxalate excretion in Control group on Day 3 are most likely related to animal adaptation. Note that the oxalate levels went down and leveled off before the beginning of PM treatment.
Ethylene glycol model of hyperoxaluria and pyridoxamine treatment. An established rat model of experimental hyperoxaluria, the ethylene glycol (EG) model (see e.g., Lyon et al. (1996) Invest Uro14:143-151; Khan (1997) World J Urol 05:236-243) was employed. […] Because ethylene glycol is converted to glycolaldehyde, an intermediate in glyoxylate pathway, its administration results in increased urinary oxalate levels (Lyon et al. (1996) Invest Urol 4:143-151; Khan (1997) World J Urol 05:236-243). […]
For uniform administration of EG and PM, water supply to all animals was limited to 45 ml/day. […] The length of treatment was determined based on the fact that after about 35 days of experimental hyperoxaluria rats may have some evidence of microscopic nephrolithiasis, but their renal function remains normal (Khan (1997) World J Urol 05:236-243). […]

The next data set has as its system collagen IV. Briefly: Formation of CML on collagen IV coated plates incubated with glucose (ELISA, anti-CML antibody). The conditions noted are these: 5 mM and 30 mM glucose; 200 mM sodium phosphate buffer, pH 7.5, 37° C., 40 days; FIG. 1B. It counts as biochemical. As for the experimental part: The secondary antibody used in the assay was an alkaline phosphatase conjugated goat anti-rabbit IgG from Sigma-Aldrich Co. (St. Louis, Mo., United States of America). Incubations were carried out in 200 mM sodium phosphate buffer, pH 7.5 at 37° C. for 40 days. […]
A general note: ELISA stands for enzyme-linked immunosorbent assay.

We go through one compound from patent publication US20070238761A1, “Use of pyridoxamine to treat and/or prevent disease processes” (Vanderbilt University, priority 2005, published 2007).

As for `Cc1ncc(CO)c(CN)c1O` [PM, 4-(aminomethyl)-5-(hydroxymethyl)-2-methyl-pyridin-3-ol], in the data set with diabetic rat model, the therapeutic effect entry is given as “had therapeutic effects”. Also, in data set [1], the “Creatinine levels at the end of experiment (primary outcome)” value was “envisioned to be significantly lower” and the “degree of renal tubular pathology at the end of experiment (secondary outcome)” value was “envisioned to be lower”. Also, in data set [2], the “change in reactive PM amino groups in incubations with ethylene glycol” value is recorded as “No change in amino groups was detected”. For the same compound, the “conversion of the BSA-Amadori glycation intermediate to BSA-CML” value in data set [3] is “inhibited the conversion of the BSA-Amadori glycation intermediate to BSA-CML”. Moreover, the “podocyte viability under cisplatin treatment” value in data set [4] is recorded as “protected cell viability in a concentration-dependent manner”. Also, the “level of the isoprostane marker (8-F2-isoprostane) in the kidney” value in data set [5] is “tendency toward lowering the level of the isoprostane marker”. In addition, the urinary oxalate excretion result in data set [6] (EG+PM group vs EG group, PM 180 mg/day/kg body wt. in drinking water continuously from Day 14, FIG. 6A) was “dramatic and sustained decrease in urinary oxalate excretion”. The “urinary oxalate excretion after PM was discontinued” value in data set [6] (PM started Day 14, discontinued Day 28, FIG. 6B) is “increase in urinary oxalate excretion to the levels found in untreated hyperoxaluric animals”. Besides, the weight gain entry in data set [6] (all experimental groups, duration of the experiment, PM 180 mg/day/kg body wt.) was “No significant differences in weight gain”. For the same compound, the adverse effects result in data set [6] (all experimental groups, PM 180 mg/day/kg body wt.) is “no adverse effects”. Moreover, in the data set on collagen IV, the “formation of CML on collagen IV” value is given as “inhibited the formation of CML on collagen IV”.
